Series [1] can be described thus: In vitro metabolism in liver microsomes. The settings on record: for remaining after 60 min of incubation: human liver microsomes, 10 μM; for microsomal CLint at 10 μM: human, liver microsomes. (In general: Liver microsomes are a subcellular fraction often used to study metabolism.)
Another series has as its target T1, H2 (h) (Homo sapiens, UniProt P25021).
T1 construct: Cerep
In words: Radioligand binding.

Another series addresses T2, NTS1 (NT1) (h) (Homo sapiens, UniProt P30989).
T2 construct: Cerep
The series can be described thus: Radioligand binding.

The nature of series [2]: PK study. The settings on record: dog i.v. 1.7 mg kg^−1; for half-life: dog. In kind it is in vivo. The procedure: (§1) On the treatment day, all animals were weighed and the dosing volume was calculated for each individual animal according to its actual body weight. All animal were dosed once. Blood samples were taken at different time points and plasma was collected after centrifugation (10,000g, 10 min, 4 °C). Plasma samples were analysed by LC–MS/MS. […] All relevant observations were recorded. The PK studies in cynomolgus monkeys and beagle dogs were performed by the Laboratory of Pharmacology and Toxicology (LPT), Hamburg, and PK and toxicity studies in mice and rats were performed by the 4SC Discovery GmbH, Munich. PK parameters were obtained by a non-compartment analysis, using Kinetica 4.1 (Thermo Scientific).

Series [3] is described as follows: Allometric scaling, prediction of human PK.
The test system of the next series is Dd2 trophozoites. The series can be described thus: In vitro speed of action, clearance of trophozoites (Vial protocol). In kind it is cell-based, Plasmodium falciparum. Conditions: 500 nM.
A further series in a line: Measured pK. In kind it is physicochemical. The procedure: SC81458 and SC83288 were soluble in water (890 and 940 μg ml^−1, respectively) and organic solvents. […] The compounds were stable in different physiological solutions, including artificial gastric juice, simulated intestinal fluid, phosphate-buffered saline and human plasma, when incubated for 6 h at 37 °C.

Series [4] in a line: PK study. Conditions: for half-life: 2 mg/kg. It is filed as in vivo, cynomolgus. The method, then:
as §1

Series [5] in a line: PK study. It is filed as in vivo, rat. Conditions: rat i.v. 2 mg kg^−1; for half-life: rat, 2 mg/kg. The procedure:
as §1

Series [6] in a line: Plasma protein binding, rapid equilibrium dialysis. In kind it is in vitro ADME. The settings on record: 10 μM. The method, then:
The study was carried out by Novamass Ltd (Oulu, Finland). The plasma protein binding of SC83288 was determined in human rat, mouse and cynomolgus plasma, using a method based on rapid equilibrium dialysis and LC/MS/MS analysis. Briefly, plasma from the different species was incubated with a final concentration of SC83288 of 10 μM for 4 h at 37 °C in a rapid equilibrium dialysis device. Proteins were then precipitated by acetonitrile addition containing a phenacetin internal standard. After centrifugation (10,000g) the supernatants were analysed by LC/MS/MS to obtain the protein unbound fraction of the analyte substance.
On the technique in general: Equilibrium dialysis compares concentrations on both sides of a semipermeable membrane.

The mark [7] stands for this setting: cynomolgus monkey, plasma, iv, cynomolgus i.v. 2 mg kg^−1.

This is an account of results in paper PMC5290327, “SC83288 is a clinical development candidate for the treatment of severe malaria” (Nature Communications, 2017).

As usually defined, the microsomal CLint is the rate of metabolic loss divided by the concentration. In general, AUC(0-inf) refers to the area under the concentration-time curve extrapolated to infinity. Read a high AUC(0-inf) as more exposure. For orientation: Cmax means the peak of the concentration-time curve. For orientation: Tmax means the time from dosing to the highest level. For orientation: clearance means a measure of how efficiently the substance is removed, as volume per time.

“And” between values parts separate entries of the source, which are not always exact repeats. Equal entries are not always repeated. Where two headings read alike, the source gives them in different places.

T2 sequence (P30989 whole entry): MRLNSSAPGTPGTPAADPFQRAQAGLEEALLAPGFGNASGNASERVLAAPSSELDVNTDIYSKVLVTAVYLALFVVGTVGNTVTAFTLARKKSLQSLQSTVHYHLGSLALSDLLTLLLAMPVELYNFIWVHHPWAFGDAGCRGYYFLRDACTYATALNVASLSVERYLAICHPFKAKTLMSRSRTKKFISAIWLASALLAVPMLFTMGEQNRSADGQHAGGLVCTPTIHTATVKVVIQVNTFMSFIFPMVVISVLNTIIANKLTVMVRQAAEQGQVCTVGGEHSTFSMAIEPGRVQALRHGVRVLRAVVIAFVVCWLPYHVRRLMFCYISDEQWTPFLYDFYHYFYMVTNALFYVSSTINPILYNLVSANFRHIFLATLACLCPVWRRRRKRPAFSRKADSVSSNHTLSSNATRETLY
T1 sequence (P25021 whole entry): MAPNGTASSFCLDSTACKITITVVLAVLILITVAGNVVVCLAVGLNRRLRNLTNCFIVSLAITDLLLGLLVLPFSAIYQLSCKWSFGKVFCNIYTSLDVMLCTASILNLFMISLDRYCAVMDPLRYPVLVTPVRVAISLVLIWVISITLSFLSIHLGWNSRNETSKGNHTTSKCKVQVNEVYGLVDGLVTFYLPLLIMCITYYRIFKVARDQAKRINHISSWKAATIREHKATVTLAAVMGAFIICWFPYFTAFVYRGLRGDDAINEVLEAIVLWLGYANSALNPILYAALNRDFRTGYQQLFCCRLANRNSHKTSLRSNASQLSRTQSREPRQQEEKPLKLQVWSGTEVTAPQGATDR

With `CCCCN1CCN(C(=N)c2cccc(NC(=O)Nc3ccc(S(=O)(=O)NCc4ccc(S(N)(=O)=O)cc4)cc3)c2)CC1` [SC81458, 4-(3-(3-((4-butylpiperazin-1-yl)(imino)methyl)phenyl)ureido)-N-(4-sulfamoylbenzyl) benzenesulfonamide], the “remaining after 60 min of incubation” value in series [1] is reported as “almost completely metabolized”. Further, in series [1] (monkey), the microsomal CLint at 10 μM worked out at 303 µL/min/mg. The “Inhibition of control specific binding” value at H2 (h) turned out to be 26%; at NTS1 (NT1) (h), 1%.

For `COC(=O)N1CCN(C(=N)c2cccc(NC(=O)Nc3ccc(S(=O)(=O)NCc4ccc(S(N)(=O)=O)cc4)cc3)c2)CC1` [SC83288, methyl 4-(imino(3-(3-(4-(N-(4-sulfamoylbenzyl)sulfamoyl)phenyl)ureido)phenyl)methyl) piperazine-1-carboxylate], the half-life in the series “PK study [2]” (beagle, plasma, iv, read-out: t1/2 effective) worked out at 35 min; in “PK study [2]” (beagle, plasma, iv, read-out: t1/2 initial) it was 12 min; in “PK study [2]” (beagle, plasma, iv, read-out: t1/2 terminal), 90 min; in “PK study [4]” (cynomolgus monkey, plasma, iv, cynomolgus i.v. 2 mg kg^−1, read-out: t1/2 effective), 62 min; in the series “PK study [4]” (cynomolgus monkey, plasma, iv, cynomolgus i.v. 2 mg kg^−1, read-out: t1/2 initial) it was 16 min; in “PK study [4]” (cynomolgus monkey, plasma, iv, cynomolgus i.v. 2 mg kg^−1, read-out: t1/2 terminal) it was 320 min. The half-life in “PK study [5]” (plasma, iv, read-out: t1/2 effective) was 52 min; in the series “PK study [5]” (plasma, iv, read-out: t1/2 initial), 9 min; in the series “PK study [5]” (plasma, iv, read-out: t1/2 terminal), 625 min. Further, the area under the curve AUC(0-inf) in “PK study [2]” (beagle, plasma, iv) was found to be 2260 ng·h/mL; in the series “PK study [4]” (setting [7]), 4250 ng·h/mL; in “PK study [5]” (plasma, iv), 1420 ng·h/mL. In addition, the C0 in “PK study [2]” (beagle, plasma, iv) came to 5580 ng/mL; in “PK study [4]” (setting [7]) it was 7340 ng/mL; in the series “PK study [5]” (plasma, iv) it was 4380 ng/mL. In addition, the Cmax in the series “PK study [2]” (beagle, plasma, iv) worked out at 4560 ng/mL; in the series “PK study [4]” (setting [7]), 6570 ng/mL; in “PK study [5]” (plasma, iv), 3280 ng/mL. For the same compound, the time to peak (Tmax) in the series “PK study [2]” (beagle, plasma, iv) is 5 min; in “PK study [4]” (setting [7]), 5 min; in the series “PK study [5]” (plasma, iv), 5 min. The clearance in the series “PK study [2]” (beagle, plasma, iv) is 14.7 mL/min/kg; in “PK study [4]” (setting [7]) it was 7.83 mL/min/kg; in the series “PK study [5]” (plasma, iv), 23.5 mL/min/kg. Besides, the MRT last in “PK study [2]” (beagle, plasma, iv, read-out: MRT0-t) came to 50.4 min; in the series “PK study [4]” (cynomolgus monkey, plasma, iv, cynomolgus i.v. 2 mg kg^−1, read-out: MRT0-t), 90 min; in “PK study [5]” (plasma, iv, read-out: MRT0-t) it was 75 min. Besides, the VC in “PK study [2]” worked out at 0.359 L/kg; in the series “PK study [4]” (cynomolgus, i.v. 2 mg kg^−1), 0.273 L/kg; in “PK study [5]”, 0.457 L/kg. Also, the “predicted human plasma clearance” value in series [3] (allometric scaling, rule of exponents) was 14.7 L/h. Moreover, the “total plasma clearance rate (higher estimate)” value in series [3] (human) is 15,180 ml h^−1. For the same compound, the “total plasma concentration for […] the free MPC” value in series [3] (human projection, assuming 78% plasma protein binding) is 860 ng/mL. The “remaining after 60 min of incubation” value in series [1] was determined as 50%. Moreover, the microsomal CLint at 10 μM in series [1] was determined as 75.8 ± 2.5 µL/min/mg. Also, the “exposure time to clear a 0.5% parasitemia” value in the series with Dd2 trophozoites was at most 3 ± 1 h. The same compound showed a pK in the series “Measured pK” of 9.82. The “C0 as multiple of the free MPC” value in “PK study [4]” (cynomolgus, i.v. 2 mg kg^−1) is about 17 times. In addition, the “Inhibition of control specific binding” value at H2 (h) came out at 0%; on NTS1 (NT1) (h), 1%. For the same compound, the Bound fraction in [6] (cynomolgus plasma) was 82 ± 2.8% and 82%; in series [6] (human plasma), 78 ± 1.3% and 78%; in [6] (mouse plasma) it was 89 ± 2.2% and 89%; in series [6] (rat plasma) it was 80 ± 0.6%.
